Assay results: PMC6661952 (BMC Chemistry, 2019)
“And” between values parts separate entries of the source, which are not always exact repeats. Equal values may be shown once. Read-outs that look alike come from different tables or passages of the source.

Conditions: for Log k (logarithm of the retention factor): C18 column, methanol-water; for φ 0 (isocratic chromatographic hydrophobicity index): φ 0 = − log kw/S, methanol as organic modifier, C18; for Log kw (lipophilicity chromatographic index, intercept of log k = log kw − S φ): extrapolated to pure water as eluent, C18, methanol-water
Protocol: For chromatographic analysis, stock solutions (200 μg/mL) of each of the investigated samples were prepared in methanol. HPLC measurements were performed utilizing Shimadzu Prominence HPLC system (Shimadzu Corporation, Japan) consisting of LC-20 AD pump, DGU-20 A5 degasser, CBM-20A interface, and SPD-20A UV–Vis detector with a 20 µL injection loop. The column utilized for studying the chromatographic behavior of the analytes was the most frequently used for lipophilicity investigations: Waters symmetry® C18 column [250 mm × 4.6 mm (i.d.), 5-μm particle size]. The flow rate was 1.2 mL/min at room temperature. The retention behaviour of the analytes was investigated as a function of mobile phase composition ranging from 60–80% methanol and 40–20% water. The HPLC analyses were carried out at room temperature under isocratic conditions. Membrane filters (0.45 μm) from Sartorius (Goettingen, Germany) were used for filtration of samples. The absorbance of the analytes during a chromatographic run was performed at 200 nm. Each experiment was run in duplicate. Chromatographic data were collected using LabSolutions CS software. H^1NMR spectra were recorded using Bruker NMR spectrometer (Bruker GmbH, Germany),
It was shown from previous reports that the chromatographic systems using methanol: water as mobile phases were better for log k modeling than those containing acetonitrile as an organic modifier. […] Chromatographic techniques including HPLC are based on the determination of the retention parameters. The indices of lipophilicity measured by HPLC are obtained from the logarithm of the retention factor (log k), which is calculated by the following equation:1 logk=logtr-t0/t0 where; tR is the retention time of the solute and t0 is the retention time of unretained species.
Estimating log kw directly is often very difficult, and is nearly non-feasible, because it can produce elongated retention time and also extreme peak broadening. […] Consequently, to obtain log kw, an extrapolation to 100% of pure water was carried out. Then, linear regression analysis was performed. Linear extrapolation is favored using definite ratios of organic modifier consistent with the lipophilicity level of the solutes.
Another substitute to the index of lipophilicity is the chromatographic index of hydrophobicity φ 0 which was first given by Valkò et al.. It is calculated simply by the equation: φ 0 = − log kw/S. φ0 denotes the volume fraction of the organic modifier in the mobile phase at which equal partitioning of the solute between the mobile and stationary phases is obtained, that is, k = 1, log k = 0 [22]. The value of φ 0 is specific for each compound; it relies solely on the pH, organic modifier and temperature.

[1] = 65% methanol in the mobile phase
[2] = 70% methanol in the mobile phase
[3] = 75% methanol in the mobile phase
[4] = 60% methanol in the mobile phase

Row | Compound | Log k (logarithm of the retention factor) [1] | Log k (logarithm of the retention factor) [2] | Log k (logarithm of the retention factor) [3] | Log k (logarithm of the retention factor) (80% methanol in the mobile phase) | Log k (logarithm of the retention factor) [4] | φ 0 (isocratic chromatographic hydrophobicity index) | Log kw (lipophilicity chromatographic index, intercept of log k = log kw − S φ)
1 | Cc1ccc(-c2cc(C(F)(F)F)nn2-c2ccc(S(N)(=O)=O)cc2)cc1 [Celecoxib, 4-[5-(4-methylphenyl)-3-(trifluoromethyl)pyrazol-1yl]benzenesulfonamide, reference compound] | 0.950 | 0.83 | 0.530 | 0.235 |  |  | 
2 | O=C(CS(=O)(=O)c1ccccc1)c1ccccc1 [Compound 11a] | 0.041 |  |  |  | 0.088 | 64.83 | 
3 | Cc1ccc(C(=O)CS(=O)(=O)c2ccccc2)cc1 [Compound 11b] | 0.493 |  |  |  | 0.317 | 69.81 | 3.597 and 3.60
4 | O=C(CS(=O)(=O)c1ccccc1)c1ccc(Br)cc1 [Compound 11c] | 0.501 | 0.123 |  |  | 0.635 | 75.14 | 3.151 and 3.15
5 | Cc1ccc(S(=O)(=O)CC(=O)c2ccc(Br)cc2)cc1 [Compound 11d] | 0.901 | 0.364 | 0.123 |  |  | 77.99 | 4.784 and 4.78
6 | O=S(=O)(C/C(=N/O)c1ccccc1)c1ccccc1 [Compound 16a] | 0.053 |  |  |  | 0.130 | 64.39 | 1.941 and 1.94
7 | Cc1ccc(/C(CS(=O)(=O)c2ccccc2)=N\O)cc1 [Compound 16b] | 0.280 | 0.150 |  |  | 0.481 | 72.57 | 2.715 and 2.72
8 | O=S(=O)(C/C(=N/Nc1ccccc1)c1ccccc1)c1ccccc1 [Compound 17a] | 0.824 | 0.740 |  |  | 0.950 | 77.97 | 4.59
9 | Cc1ccc(/C(CS(=O)(=O)c2ccccc2)=N\Nc2ccccc2)cc1 [Compound 17b] | 0.743 | 0.611 |  |  | 0.847 | 74.52 | 5.182 and 5.18
